Legend:
alanine aminotransferase = settings: off-target aminotransferase enzyme; cited from earlier work
[1] = system: aspartate aminotransferase; settings: off-target aminotransferase enzyme; cited from earlier work
[2] = system: release of dopamine in the corpus striatum; settings: rats; after exposure to cocaine or nicotine; compared with previous inhibitors of GABA-AT; cited from earlier work
[3] = system: various microsomal cytochrome P450 enzymes; settings: cited from earlier work
[4] = system: γ-aminobutyric acid aminotransferase (GABA-AT); settings: statement in the background section; cited from earlier work
[5] = biological target: hERG potassium ion channel (Homo sapiens, UniProt Q12809); settings: cited from earlier work
multiple GABA receptors = settings: cited from earlier work
[6] = with prolonged use; cited from earlier work

hERG potassium ion channel, sequence (Q12809 whole entry): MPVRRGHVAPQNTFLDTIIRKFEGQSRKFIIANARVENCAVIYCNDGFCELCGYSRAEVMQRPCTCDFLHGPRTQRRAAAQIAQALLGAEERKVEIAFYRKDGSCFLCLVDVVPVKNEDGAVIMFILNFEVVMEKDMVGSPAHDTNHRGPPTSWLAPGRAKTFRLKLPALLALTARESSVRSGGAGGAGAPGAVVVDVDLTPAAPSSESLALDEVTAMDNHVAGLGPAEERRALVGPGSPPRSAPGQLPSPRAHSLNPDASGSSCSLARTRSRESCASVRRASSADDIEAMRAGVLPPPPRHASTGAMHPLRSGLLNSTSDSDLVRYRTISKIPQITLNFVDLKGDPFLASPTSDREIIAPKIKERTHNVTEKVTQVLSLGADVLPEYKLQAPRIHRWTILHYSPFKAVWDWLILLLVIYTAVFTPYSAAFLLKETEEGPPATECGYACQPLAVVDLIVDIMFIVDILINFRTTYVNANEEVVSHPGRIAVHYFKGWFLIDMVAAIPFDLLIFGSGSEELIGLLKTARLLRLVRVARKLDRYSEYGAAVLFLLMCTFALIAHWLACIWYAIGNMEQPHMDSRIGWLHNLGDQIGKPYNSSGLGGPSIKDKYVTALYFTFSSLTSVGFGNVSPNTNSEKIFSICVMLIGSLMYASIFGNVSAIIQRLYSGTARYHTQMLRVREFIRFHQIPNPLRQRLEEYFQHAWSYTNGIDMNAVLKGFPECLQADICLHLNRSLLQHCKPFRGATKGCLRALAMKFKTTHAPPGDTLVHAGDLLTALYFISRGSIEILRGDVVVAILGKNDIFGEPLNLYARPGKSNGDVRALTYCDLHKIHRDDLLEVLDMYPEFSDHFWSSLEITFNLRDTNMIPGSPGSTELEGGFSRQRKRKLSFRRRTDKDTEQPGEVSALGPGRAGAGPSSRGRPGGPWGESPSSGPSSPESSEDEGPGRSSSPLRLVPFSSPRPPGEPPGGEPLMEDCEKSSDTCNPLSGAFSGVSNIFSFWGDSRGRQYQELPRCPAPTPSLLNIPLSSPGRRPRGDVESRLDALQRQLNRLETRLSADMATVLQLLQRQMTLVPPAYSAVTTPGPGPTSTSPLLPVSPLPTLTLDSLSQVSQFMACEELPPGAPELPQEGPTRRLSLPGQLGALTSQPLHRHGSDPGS

melting point [°C] | SMILES | inhibition of alanine aminotransferase (alanine aminotransferase) | inhibition of aspartate aminotransferase [1] | suppressing the release of dopamine in the corpus striatum [2] | inhibition of various microsomal cytochrome P450 enzymes [3] | inhibitor of GABA-AT [4] | inhibition of the hERG potassium ion channel [5] | inhibition of multiple GABA receptors (multiple GABA receptors) | retinal damage, share of patients [6]
– | N[C@H]1C=C(C(=O)O)CC1=C(F)F [(S)-3-amino-4-(difluoromethylenyl)cyclopent-1-ene-1-carboxylic acid] | does not inhibit | does not inhibit | superior | does not inhibit | inhibitor | does not inhibit | – | –
– | C=CC(N)CCC(=O)O (stereo not shown) [Vigabatrin, 4-Aminohex-5-enoic acid] | – | – | – | – | inhibitor | – | inhibits | 25-40 % of patients
139 to 141 | O=C1N[C@@H]2C(=C(F)F)C[C@H]1[C@H]2Br | – | – | – | – | – | – | – | –

From US10836708B2, “Process for the synthesis of (s) 3-amino-4-(difluoromethylenyl)cyclopent-1-ene-1-carboxylic acid” (NORTHWESTERN UNIVERSITY, priority 2018, dated 2020)
